Data: publication PMC9081329, “Pharmacokinetics, Mass Balance, Excretion, and Tissue Distribution of Plasmalogen Precursor PPI-1011” (Frontiers in Cell and Developmental Biology, 2022)

Assay: Repeat dose tissue distribution study (QWBA, LSC of blood and plasma), 15 daily doses
Format: in vivo, Sprague-Dawley rats
Protocol: Three male rats were administered [^14C]PPI-1011 at 100 mg/kg (100 μCi/kg) once daily for 15 days. One rat was sacrificed at each of the following time points after the administration of the day 15 dose: 24, 48, and 96 h. Terminal blood was collected by cardiac puncture directly into tubes with K2EDTA, an aliquot was stored at 4°C until LSC was performed for radioactivity, while the remaining blood was processed to plasma and stored at −20°C until LSC. Following blood collection, the carcasses were frozen in a cold bath with hexanes and dry ice for at least 8 min and then dried and stored at −70°C for at least 12 h. The carcasses were transferred to a −20°C freezer for at least 12 h before embedding.
QWBA was used to determine radioactivity concentrations in the caecum (contents and mucosa), large intestine (contents and mucosa), small intestine (contents and mucosa), stomach (contents and mucosa), brain, choroid plexus, spinal cord, bone, skin, adrenal gland, pineal body, pituitary gland, thyroid gland, liver, kidney (cortex, medulla and whole kidney), urinary bladder (contents and wall), brown fat, white fat, eye (lens, uveal tract and whole eye), epididymis, prostate gland, testis, ovary, uterus, lung, exorbital lachrymal gland, Harderian gland, pancreas, salivary gland, skeletal muscle, myocardium, cardiac blood, bone marrow, lymph node, spleen, and thymus. As well, LSC was used to determine the total radioactivity in the whole blood and plasma.
The whole-body cryosectioning technique described by ([Ullberg, 1977]) was the basis for embedding and cryosectioning the rats assigned to this study. Each frozen carcass was shaved, and then the limbs and tail were removed prior to embedding. Chilled (4°C) 3% CMC (low viscosity) was utilized to provide a firm support of reinforced ice around each rat and for a secure attachment to the microtome stage. Upon thorough freezing of the embedding medium surrounding each rat, the frozen CMC block was removed from the freezing bath and four 3/8 inch holes were drilled into the block. One cryosection quality control standard (CQCS) was prepared with a known amount of radioactivity and at least 1 ml aliquots were added to each of the four drilled holes. CQCS data were utilized to evaluate the overall performance of the QWBA assay.
Each frozen rat was sagittally trimmed (50–100 μm) at −20°C until exposure of a few target tissues employing a Leica Cryomacrocut heavy-duty microtome (Leica Microsystems Inc.,). Disposable stainless steel Feather type H45L knives (Feather Safety Razor Co., Ltd.) were utilized for trimming and sectioning each frozen rat. Several thinner sections (50 μm) were discarded prior to obtaining multiple 50 μm sections at various cryosectioning levels for QWBA analysis. Upon the collection of at least 60 target tissues in multiple cryosectioning levels, the cryosections were kept in the Cryomacrocut cryochamber for a minimum of 18 h for dehydration depending upon the number of cryosections within the cryochamber. After dehydration was complete, the cryosections were transferred to ambient temperature for processing. Mounted whole-body cryosections and a set of 15 standards were sandwiched between a standard phosphor screen and an exposure cassette. All cryosections were exposed to the phosphor screen for 4-days in a cabinet protected with lead prior to scanning using a Typhoon PhosphorImager (Cytiva). MCID™ Analysis software (InterFocus Ltd.) was utilized to generate a calibration curve of the STD nominal concentrations (nCi/g) versus PhosphorImager response (counts/μm^2 minus background) by weighted (1/x) linear regression analysis ([Potchoiba et al., 1995]; [Potchoiba et al., 1998]). The linear regression curve was then utilized to determine the concentration (nCi/g) of total radioactivity in whole-body tissues and blood. Radioactivity concentrations were expressed as μg Eq/g based on the specific activity of the compound in the final dose formulations. […]

[1] = 24 hr post 15 daily oral 100 mg/kg
[2] = 48 hr post 15 daily oral 100 mg/kg

CC/C=C\C/C=C\C/C=C\C/C=C\C/C=C\C/C=C\CCC(=O)O[C@H](CO[14CH2]CCCCCCCCCCCCCCC)COC(=O)CCCCC1CCSS1 (stereo partly shown) [[^14C]PPI-1011]
Mean percentage radioactivity (normalized by tissue) at 96 h relative to the 24-h timepoint (15 daily doses): 75%
Radioactivity in urine within the urinary bladder (15 daily doses): no detection of radioactivity
Time of highest blood concentration (15 daily doses): 24 HPD
Time of highest levels, adrenal gland (15 daily doses): 48 HPD
Time of highest levels, cerebrum (15 daily doses): 96 HPD
Time of highest levels, medulla oblongata (15 daily doses): 96 HPD
Time of highest levels, nasal turbinates (15 daily doses): 48 HPD
Time of highest levels, spinal cord (15 daily doses): 96 HPD
Time of highest peak concentration, bladder wall (15 daily doses): 48 HPD
Time of highest peak concentration, brown adipose (15 daily doses): 24 HPD
Time of highest peak concentration, cecum (15 daily doses): 24 HPD
Time of highest peak concentration, esophagus (15 daily doses): 24 HPD
Time of highest peak concentration, gastric mucosa (15 daily doses): 24 HPD
Time of highest peak concentration, large intestines (15 daily doses): 24 HPD
Time of highest peak concentration, ocular lens (15 daily doses): 96 HPD
Time of highest peak concentration, prostate (15 daily doses): 96 HPD
Time of highest peak concentration, seminal vesicles (15 daily doses): 24 HPD
Time of highest peak concentration, small intestines (15 daily doses): 24 HPD
Time of highest peak concentration, stomach (15 daily doses): 24 HPD
Time of highest peak concentration, subcutaneous adipose (15 daily doses): 48 HPD
Time of highest peak concentration, testis (15 daily doses): 24 HPD
Time of highest peak concentration, uveal tract (15 daily doses): 24 HPD
Time of highest peak concentration, visceral adipose (15 daily doses): 48 HPD
Time of highest peak concentration, vitreous body (15 daily doses): 24 HPD
Time of highest peak concentration, whole eye (15 daily doses): 24 HPD
Blood:plasma concentration ratio (24 HPD, 15 daily doses): 2.31
Blood:plasma concentration ratio (48 HPD, 15 daily doses): 2.86
Blood:plasma concentration ratio (96 HPD, 15 daily doses): 4.23
Radioactivity concentration, Adipose - Brown [1]: 2211 μg equivalents/g
Radioactivity concentration, Adipose - Brown (Vessel Wall) [1]: 1423 μg equivalents/g
Radioactivity concentration, Adipose - Subcutaneous [1]: 1316 μg equivalents/g
Radioactivity concentration, Adipose - Visceral [1]: 1402 μg equivalents/g
Radioactivity concentration, Adrenal Gland [1]: 1830 μg equivalents/g
Radioactivity concentration, Bladder Wall [1]: 102 μg equivalents/g
Radioactivity concentration, Blood - QWBA [1]: 55.0 μg equivalents/g
Radioactivity concentration, Bone Marrow [1]: 160 μg equivalents/g
Radioactivity concentration, Bone Surface [1]: 11.6 μg equivalents/g
Radioactivity concentration, Cecum [1]: 300 μg equivalents/g
Radioactivity concentration, Cerebellum [1]: 57.8 μg equivalents/g
Radioactivity concentration, Cerebrum [1]: 45.7 μg equivalents/g
Radioactivity concentration, Choroid Plexus [1]: 186 μg equivalents/g
Radioactivity concentration, Colliculus [1]: 68.3 μg equivalents/g
Radioactivity concentration, Diaphragm [1]: 204 μg equivalents/g
Radioactivity concentration, Esophagus [1]: 161 μg equivalents/g
Radioactivity concentration, Exorbital Lacrimal Gland [1]: 98.0 μg equivalents/g
Radioactivity concentration, Gastric Mucosa [1]: 415 μg equivalents/g
Radioactivity concentration, Harderian Gland [1]: 113 μg equivalents/g
Radioactivity concentration, Intra-Orbital Lacrimal Gland [1]: 100 μg equivalents/g
Radioactivity concentration, Kidney [1]: 304 μg equivalents/g
Radioactivity concentration, Large Intestines [1]: 255 μg equivalents/g
Radioactivity concentration, Liver [1]: 412 μg equivalents/g
Radioactivity concentration, Lung [1]: 217 μg equivalents/g
Radioactivity concentration, Lymph Node [1]: 347 μg equivalents/g
Radioactivity concentration, Medulla Oblongata [1]: 51.0 μg equivalents/g
Radioactivity concentration, Muscle [1]: 115 μg equivalents/g
Radioactivity concentration, Myocardium [1]: 292 μg equivalents/g
Radioactivity concentration, Nasal Turbinates [1]: 180 μg equivalents/g
Radioactivity concentration, Ocular - Lens [1]: 5.82 μg equivalents/g
Radioactivity concentration, Ocular - Uveal Tract [1]: 105 μg equivalents/g
Radioactivity concentration, Ocular - Vitreous Body [1]: 2.55 μg equivalents/g
Radioactivity concentration, Ocular - Whole Eye [1]: 22.7 μg equivalents/g
Radioactivity concentration, Olfactory Bulb [1]: 47.8 μg equivalents/g
Radioactivity concentration, Pancreas [1]: 355 μg equivalents/g
Radioactivity concentration, Parotid Gland [1]: 296 μg equivalents/g
Radioactivity concentration, Pineal Gland [1]: 230 μg equivalents/g
Radioactivity concentration, Pituitary Gland [1]: 266 μg equivalents/g
Radioactivity concentration, Prostate [1]: 74.6 μg equivalents/g
Radioactivity concentration, Renal Cortex [1]: 323 μg equivalents/g
Radioactivity concentration, Renal Medulla [1]: 238 μg equivalents/g
Radioactivity concentration, Salivary Gland [1]: 308 μg equivalents/g
Radioactivity concentration, Seminal Vesicles [1]: 63.2 μg equivalents/g
Radioactivity concentration, Skin - Non-Pigmented [1]: 161 μg equivalents/g
Radioactivity concentration, Small Intestines [1]: 420 μg equivalents/g
Radioactivity concentration, Spinal Cord [1]: 46.8 μg equivalents/g
Radioactivity concentration, Spleen [1]: 319 μg equivalents/g
Radioactivity concentration, Stomach [1]: 133 μg equivalents/g
Radioactivity concentration, Testis [1]: 70.3 μg equivalents/g
Radioactivity concentration, Thalamus [1]: 45.4 μg equivalents/g
Radioactivity concentration, Thymus [1]: 153 μg equivalents/g
Radioactivity concentration, Thyroid [1]: 373 μg equivalents/g
Radioactivity concentration, Whole Brain [1]: 48.8 μg equivalents/g
Radioactivity concentration, Adipose - Brown [2]: 1917 μg equivalents/g
Radioactivity concentration, Adipose - Brown (Vessel Wall) [2]: 1017 μg equivalents/g
Radioactivity concentration, Adipose - Subcutaneous [2]: 1498 μg equivalents/g
Radioactivity concentration, Adipose - Visceral [2]: 1500 μg equivalents/g
Radioactivity concentration, Adrenal Gland [2]: 2346 μg equivalents/g
Radioactivity concentration, Bladder Wall [2]: 108 μg equivalents/g
Radioactivity concentration, Blood - QWBA [2]: 34.3 μg equivalents/g
Radioactivity concentration, Bone Marrow [2]: 113 μg equivalents/g
Radioactivity concentration, Bone Surface [2]: 7.66 μg equivalents/g
Radioactivity concentration, Cecum [2]: 95.7 μg equivalents/g
Radioactivity concentration, Cerebellum [2]: 54.9 μg equivalents/g
Radioactivity concentration, Cerebrum [2]: 39.9 μg equivalents/g
Radioactivity concentration, Choroid Plexus [2]: 131 μg equivalents/g
